# Measurements reported in patent publication US9801960B2, “Probe for a biological specimen and labelling method and screening method using the probe” (CANON KABUSHIKI KAISHA, priority 2008, dated 2017).
# Columns and labels:
# Zebrafish juveniles = experiment: In vivo labelling of Zebrafish juveniles with probe for biological specimen; set-up: key to Staining property: +++: stained; −: no stained; key to Fluorescence sensitivity: +++: strongly observed; ++: moderately observed; +: weakly observed; −: no stained; conditions: 1 hour; for Site(s) to be labelled: 10 ng/mL in water, stereoscopic microscope; for Fluorescence sensitivity / Staining property: 10 ng/mL; for Fluorescence sensitivity: fluorescence intensity visually evaluated; for Staining property: visually evaluated
# Procedure, shortened: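 Five zebrafish juveniles were immersed in distilled water containing staining compound at 10 ng/mL (DMSO solution) for 1 hour. They were then washed three times with Egg Water, immobilised in 3% methylcellulose and imaged by stereomicroscope. Staining and fluorescence intensity were scored visually on a +++ to − scale.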
# [1] = Storage stability of staining compound solution in DMSO; type: physicochemical; conditions: 10 ng/mL in DMSO, closed glass container, normal temperature, 1 month; rate of change of absorbance and fluorescence intensity
# Procedure, shortened: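 Compounds held as 10 ng/mL DMSO solutions in closed glass containers at normal temperature for 1 month. Rates of change in absorbance and fluorescence intensity at a given wavelength versus start were scored: +++ <5%, ++ 5–15%, − >15%.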
# [2] = Excitation and fluorescence emission wavelength measurement; type: physicochemical; set-up: Stokes shift (λem − λex): unit not given here; conditions: aqueous solution: 10 mg/mL solution in DMSO diluted 500-fold with purified water
# Protocol: It should be noted that the excitation wavelength and the fluorescence emission wavelength of the staining compound were determined by measuring an aqueous solution, which had been obtained by diluting 500-fold a 10 mg/mL solution of the staining compound in DMSO with purified water, with a fluorescence spectrophotometer FL 4500 manufactured by Hitachi High-Technologies Corporation.
Excitation wavelength λex [2] [nm],Fluorescence emission wavelength λem [2] [nm],Stokes shift (λem − λex) [2],Compound,Site(s) to be labelled (Zebrafish juveniles),Fluorescence sensitivity (Zebrafish juveniles),Staining property (Zebrafish juveniles),Storage stability [1]
520,640,120,CSc1cccc(N2c3ccc(/C=C4/SC(=S)N(CC(=O)O)C4=O)cc3C3CCCC32)c1 (stereo not shown) [Dye 115],"blood vessel, gallbladder, and gastrointestinal",+++,+++,"+++ (rates of change of the absorbance and the fluorescence intensity are less than 5%, and thus, the storage stability is highly excellent)"
486,606,120,O=C(O)CN1C(=O)/C(=C\c2cc(Br)c3c(c2)C2CCCC2N3Cc2ccccc2)SC1=S (stereo not shown) [Dye 116],"blood vessel, gallbladder, and gastrointestinal",++,+++,"+++ (rates of change of the absorbance and the fluorescence intensity are less than 5%, and thus, the storage stability is highly excellent)"
564,651,87,CCN1c2ccc(/C=C3/SC(=S)N(CCC(=O)O)C3=O)cc2C2CCCC21 (stereo not shown) [Dye 123],gallbladder and gastrointestinal tract,+++,+++,"+++ (rates of change of the absorbance and the fluorescence intensity are less than 5%, and thus, the storage stability is highly excellent)"
605,618,13,CCN1c2ccc(/C=C/c3sc4ccccc4[n+]3CC(=O)O)cc2C2CCCC21 (stereo not shown) [Dye 124],nose,+++,+++,"+++ (rates of change of the absorbance and the fluorescence intensity are less than 5%, and thus, the storage stability is highly excellent)"
564,651,87,COc1ccc(N2c3ccc(/C=C4/SC(=S)N(CCC(=O)O)C4=O)cc3C3CCCC32)cc1 (stereo not shown) [Dye 127],"blood vessel, liver, and gastrointestinal tract",+++,+++,"+++ (rates of change of the absorbance and the fluorescence intensity are less than 5%, and thus, the storage stability is highly excellent)"
530,690,160,COc1ccc(N2c3ccc(/C=C4\C(=O)N(c5ccccc5)N=C4C(=O)O)cc3C3CCCC32)cc1 (stereo not shown) [Dye 128],"blood vessel, liver, and gastrointestinal tract",++,+++,"+++ (rates of change of the absorbance and the fluorescence intensity are less than 5%, and thus, the storage stability is highly excellent)"
522,611,89,O=C(O)CCN1C(=O)/C(=C\c2ccc3c(c2)C2CCCC2N3c2ccccc2)SC1=S (stereo not shown) [Dye 129],"blood vessel, gallbladder, and gastrointestinal",+++,+++,"+++ (rates of change of the absorbance and the fluorescence intensity are less than 5%, and thus, the storage stability is highly excellent)"
541,619,78,O=C(O)CCN1C(=O)/C(=C\c2ccc3c(c2)C2CCCC2N3c2ccccc2)SC1=S (stereo not shown) [Dye 130],"blood vessel, liver, and gastrointestinal tract",+++,+++,"+++ (rates of change of the absorbance and the fluorescence intensity are less than 5%, and thus, the storage stability is highly excellent)"
440,580,140,COc1ccc(N2c3ccc(/C=C(/C#N)C(=O)O)cc3C3CCCC32)cc1 (stereo not shown) [Dye 131],liver and gastrointestinal tract,+++,+++,"+++ (rates of change of the absorbance and the fluorescence intensity are less than 5%, and thus, the storage stability is highly excellent)"
530,680,150,C=CCN1C(=O)/C(=c2\s/c(=C/c3ccc4c(c3)C3CCCC3N4c3ccc(OC)cc3)c(=O)n2CC(=O)O)SC1=S (stereo not shown) [Dye 132],blood vessel,+++,+++,"+++ (rates of change of the absorbance and the fluorescence intensity are less than 5%, and thus, the storage stability is highly excellent)"
510,690,180,C=CCN1C(=O)/C(=c2\s/c(=C/c3ccc4c(c3)C3CCCC3N4c3ccccc3)c(=O)n2CC(=O)O)SC1=S (stereo not shown) [Dye 133],blood vessel,+++,+++,"+++ (rates of change of the absorbance and the fluorescence intensity are less than 5%, and thus, the storage stability is highly excellent)"
440,600,160,CSc1ccc(N2c3ccc(/C=C(/C#N)C(=O)O)cc3C3CCCC32)cc1 (stereo not shown) [Dye 134],blood vessel,+++,+++,"+++ (rates of change of the absorbance and the fluorescence intensity are less than 5%, and thus, the storage stability is highly excellent)"
430,600,170,CSc1ccc(N2c3ccc(/C=C(/C#N)C(=O)O)cc3C3CCCC32)cc1 (stereo not shown) [Dye 135],blood vessel,+++,+++,"+++ (rates of change of the absorbance and the fluorescence intensity are less than 5%, and thus, the storage stability is highly excellent)"
560,760,200,C[n+]1c(/C=c2\s/c(=C/c3ccc4c(c3)C3CCCC3N4c3ccc(C=C(c4ccccc4)c4ccccc4)cc3)c(=O)n2CC(=O)O)sc2ccccc21 (stereo not shown) [Dye 136],gastrointestinal tract,+++,+++,"+++ (rates of change of the absorbance and the fluorescence intensity are less than 5%, and thus, the storage stability is highly excellent)"
590,700,110,CCn1c(=O)/c(=C\c2ccc3c(c2)C2CCCC2N3c2ccccc2)s/c1=C1/SC(=S)N(CC(=O)O)C1=O (stereo not shown) [Dye 137],gallbladder and gastrointestinal tract,+++,+++,"+++ (rates of change of the absorbance and the fluorescence intensity are less than 5%, and thus, the storage stability is highly excellent)"
540,690,150,CCN1C(=O)/C(=c2\s/c(=C/c3ccc4c(c3)C3CCCC3N4c3cccc(SC)c3)c(=O)n2CC(=O)O)SC1=S (stereo not shown) [Dye 138],gastrointestinal tract,+++,+++,"+++ (rates of change of the absorbance and the fluorescence intensity are less than 5%, and thus, the storage stability is highly excellent)"
570,640,70,CC[N+]1=C(C=c2s/c(=C/c3ccc4c(c3)C3CCCC3N4c3ccccc3)c(=O)n2CC(=O)O)C(C)(C)c2ccccc21 (stereo not shown) [Dye 139],nose,+++,+++,"+++ (rates of change of the absorbance and the fluorescence intensity are less than 5%, and thus, the storage stability is highly excellent)"
510,650,140,O=C(O)CN1C(=O)/C(=C2C=C/C(=C\c3ccc4c(c3)C3CCCC3N4c3ccccc3)C\2)SC1=S (stereo not shown) [Dye 140],gastrointestinal tract,+++,+++,"+++ (rates of change of the absorbance and the fluorescence intensity are less than 5%, and thus, the storage stability is highly excellent)"
380,490,110,O=C1/C(=C/c2ccc3c(c2)C2CCCC2N3c2ccccc2)Oc2ccc(I)cc21 (stereo not shown) [Dye 141],gastrointestinal tract,+++,+++,"+++ (rates of change of the absorbance and the fluorescence intensity are less than 5%, and thus, the storage stability is highly excellent)"
